The values that follow come from patent US11807649B2, “Fused tetracyclic quinazoline derivatives as inhibitors of ErbB2” (EnLiven Therapeutics, Inc., priority 2021, dated 2023).

pIC50: −log10 of the molar value. Like-named read-outs stand apart in the source and are kept apart here.

The test system of this assay is Ba/F3 ERBB2 YVMA. In words: Cell viability assay (CellTiter Glo), Ba/F3 cells engineered to express ERBB2 YVMA. To be noted: Mus musculus, BaF3, 72 h; for pIC50: Ba/F3 cells expressing human ERBB2 YVMA mutant, 72 hours, cell viability, CellTiter Glo, read-out: Ba/F3 ERBB2 YVMA, IC50; for IC50: read-out: Ba/F3 ERBB2 YVMA, IC50, nM. It counts as cell-based. As to the method: Cells were treated with compounds, and cell viability was measured as a metric of kinase inhibition.
BT-474, A431, MDA-MB-175VII, NCI-H1781, MCF7, and Ba/F3 cell lines were tested. The Ba/F3 cell line is IL-3-dependent mouse cell line derived from the C3H mouse strain. Ba/F3 cell lines were engineered to express human ERBB2 or EGFR kinases, rendering the cells IL-3 independent. The lines were generated via retroviral transduction utilizing a Moloney murine leukemia virus (MMLV) promoter, and constructs are stably integrated into the cell genome. The sequences of the ERBB2 and EGFR genes used were NCBI Reference Sequences NM 004448.3 and NM 005228.3, respectively.
BT-474, A431, MDA-MB-175VII, NCI-H1781 and MCF7 cells were grown in the appropriate growth medium as described in Table B2 below, and harvested at 50-80% confluence. BT-474, A431, MDA-MB-175VII, NCI-H1781 and MCF7 cells were counted and seeded at 2,000 or 1,500 cells per well in 384-well tissue culture plates (see Table B2). Similarly, Ba/F3 cell lines engineered to express EGFR, ERBB2, or ERBB2 mutants were grown, harvested, counted and seeded at 3000 cells per well in 96-well plates. A subset of wells contained media only (low control, “LC”).
Table B1 provides the growth media and number of cells seeded per well for the each cell line.
Compounds were dissolved in DMSO and serially diluted. Serially-diluted compound or a DMSO only control (high control, “HC”) was added to the plated cells in each well. Compounds were tested at concentrations of about 10 μM to 0.51 nM, using three-fold dilutions. The final proportion of DMSO never exceeded 0.1%.
Plates were placed in a 37° C., 5% CO2 incubator for 72 hours. Plates were then removed from the incubator and equilibrated for 15 minutes at room temperature. […] of CellTiter Glo reagent (Promega) was added to measure the relative level of metabolically active cells by quantifying intracellular ATP concentrations. Plates were incubated for 30 minutes at room temperature, and luminescence was measured. Percent viability was normalized to a vehicle control only using the following formula: % viability=100×(Lumsample−LumLC)/(LumHC−LumLC). Graphical curves were fitted using a nonlinear regression model with a sigmoidal dose response.
For orientation: ATP-based viability assays read luminescence as a measure of living cells.

Consider `Cc1cc(Nc2ncnc3cc4c(nc23)N2CCN(C(=O)/C=C/C3(F)CN(C)C3)[C@H](CO4)C2)ccc1Oc1ccn2ncnc2c1` [Compound 53, (E)-1-((10S)-4-((4-([1,2,4]triazolo[1,5-a]pyridin-7-yloxy)-3-methylphenyl)amino)-7,8,10,11-tetrahydro-9H-6,10-methanopyrimido[4′,5′:5,6]pyrido[3,2-b][1,4,7]oxadiazonin-9-yl)-3-(3-fluoro-1-methylazetidin-3-yl)prop-2-en-1-one], for which the pIC50 is 6.93.

In the case of `Cc1ccc(Oc2ccc(Nc3ncnc4cc5c(nc34)N3CCN(C(=O)/C=C/CN(C)C)[C@H](CO5)C3)cc2C)cn1` [Compound 21, (E)-4-(dimethylamino)-1-((10S)-4-((3-methyl-4-((6-methylpyridin-3-yl)oxy)phenyl)amino)-7,8,10,11-tetrahydro-9H-6,10-methanopyrimido[4′,5′:5,6]pyrido[3,2-b][1,4,7]oxadiazonin-9-yl)but-2-en-1-one], the pIC50 was 8.28.

Take `CC#CC(=O)N1CCN2C[C@H]1COc1cc3ncnc(Nc4ccc(Oc5ccn6ncnc6c5)c(C)c4)c3nc12` [Compound 18, 1-((10S)-4-((4-([1,2,4]triazolo[1,5-a]pyridin-7-yloxy)-3-methylphenyl)amino)-7,8,10,11-tetrahydro-9H-6,10-methanopyrimido[4′,5′:5,6]pyrido[3,2-b][1,4,7]oxadiazonin-9-yl)but-2-yn-1-one]: the pIC50 is 7.67.

On to `Cc1cc(Nc2ncnc3cc4c(nc23)N2CCN(C(=O)/C=C/CN(C)C)[C@@H](CO4)C2)ccc1Oc1ccn2ncnc2c1` [Compound 15, (E)-1-((10R)-4-((4-([1,2,4]triazolo[1,5-a]pyridin-7-yloxy)-3-methylphenyl)amino)-7,8,10,11-tetrahydro-9H-6,10-methanopyrimido[4′,5′:5,6]pyrido[3,2-b][1,4,7]oxadiazonin-9-yl)-4-(dimethylamino)but-2-en-1-one], for which the pIC50 is 7.08.

Consider `CN(C)C/C=C/C(=O)N1CCN2C[C@H]1COc1cc3ncnc(Nc4cc(Cl)c(Oc5ccn6ncnc6c5)cc4F)c3nc12` [Compound 43, (E)-1-((10S)-4-((4-([1,2,4]triazolo[1,5-a]pyridin-7-yloxy)-5-chloro-2-fluorophenyl)amino)-7,8,10,11-tetrahydro-9H-6,10-methanopyrimido[4′,5′:5,6]pyrido[3,2-b][1,4,7]oxadiazonin-9-yl)-4-(dimethylamino)but-2-en-1-one], for which the pIC50 is 8.33.

Turning to `CN(C)C/C=C/C(=O)N1CCN2C[C@H]1COc1cc3ncnc(Nc4cc(F)c(Oc5ccn6ncnc6c5)cc4F)c3nc12` [Compound 48, (E)-1-((10S)-4-((4-([1,2,4]triazolo[1,5-a]pyridin-7-yloxy)-2,5-difluorophenyl)amino)-7,8,10,11-tetrahydro-9H-6,10-methanopyrimido[4′,5′:5,6]pyrido[3,2-b][1,4,7]oxadiazonin-9-yl)-4-(dimethylamino)but-2-en-1-one], the IC50 came out at 4.85 nM.

`Cc1cc(Nc2ncnc3cc4c(c(F)c23)N2CCN(C(=O)/C=C/CN(C)C)[C@H](CO4)C2)ccc1Oc1ccn2ncnc2c1` [Compound 40, (E)-1-((10S)-4-((4-([1,2,4]triazolo[1,5-a]pyridin-7-yloxy)-3-methylphenyl)amino)-5-fluoro-7,8,10,11-tetrahydro-9H-6,10-methano[1,4,7]oxadiazonino[3,2-g]quinazolin-9-yl)-4-(dimethylamino)but-2-en-1-one]: the pIC50 was 7.53.

Regarding `Cc1cc(Nc2ncnc3ccc(NC4=NC(C)(C)CO4)cc23)ccc1Oc1ccn2ncnc2c1` [Tucatinib, tucatinib, reference compound], the pIC50 was 6.98.

On to `CCOc1cc2ncc(C#N)c(Nc3ccc(OCc4ccccn4)c(Cl)c3)c2cc1NC(=O)/C=C/CN(C)C` [Neratinib, neratinib, reference compound], for which the IC50 was 3.5 nM.

Regarding `Cc1cc(Nc2ncnc3cc4c(nc23)N2CCN(C(=O)/C=C/CN(C)C)[C@H](CO4)C2)ccc1Oc1cccnc1` [Compound 25, (E)-4-(dimethylamino)-1-((10S)-4-((3-methyl-4-(pyridin-3-yloxy)phenyl)amino)-7,8,10,11-tetrahydro-9H-6,10-methanopyrimido[4′,5′:5,6]pyrido[3,2-b][1,4,7]oxadiazonin-9-yl)but-2-en-1-one], the pIC50 was 8.69.

As to `Cc1cc(Nc2ncnc3cc4c(cc23)N2CCN(C(=O)/C=C/CN(C)C)[C@H](CO4)C2)ccc1Oc1ccc2c(c1)ncn2C` [Compound 7, (E)-4-(dimethylamino)-1-((10S)-4-((3-methyl-4-((1-methyl-1H-benzo[d]imidazol-5-yl)oxy)phenyl)amino)-7,8,10,11-tetrahydro-9H-6,10-methano[1,4,7]oxadiazonino[3,2-g]quinazolin-9-yl)but-2-en-1-one], the pIC50 is 7.10.

With `Cc1cc(Nc2ncnc3cc4c(nc23)N2CCN(C(=O)/C=C/CN(C)C)C(CCO4)C2)ccc1Oc1ccn2ncnc2c1` (stereo not shown) [Compound 52, (E)-1-(4-((4-([1,2,4]triazolo[1,5-a]pyridin-7-yloxy)-3-methylphenyl)amino)-7,8,11,12-tetrahydro-6,10-methanopyrimido[4′,5′:5,6]pyrido[3,2-b][1,4,7]oxadiazecin-9(10H)-yl)-4-(dimethylamino)but-2-en-1-one], the pIC50 was 6.96.

In the case of `Cc1cc(Nc2ncnc3cc4c(nc23)N2CCN(C(=O)/C=C/C3CN(C)C3)[C@H](CO4)C2)ccc1Oc1ccn2ncnc2c1` [Compound 45, (E)-1-((10S)-4-((4-([1,2,4]triazolo[1,5-a]pyridin-7-yloxy)-3-methylphenyl)amino)-7,8,10,11-tetrahydro-9H-6,10-methanopyrimido[4′,5′:5,6]pyrido[3,2-b][1,4,7]oxadiazonin-9-yl)-3-(1-methylazetidin-3-yl)prop-2-en-1-one], the pIC50 was 7.33.

For the compound `Cc1cc(Nc2ncnc3cc4c(nc23)N2CCN(C(=O)/C=C/CN(C)C)[C@H](CO4)C2)ccc1Oc1ccn2ccnc2c1` [Compound 34, (E)-4-(dimethylamino)-1-((10S)-4-((4-(imidazo[1,2-a]pyridin-7-yloxy)-3-methylphenyl)amino)-7,8,10,11-tetrahydro-9H-6,10-methanopyrimido[4′,5′:5,6]pyrido[3,2-b][1,4,7]oxadiazonin-9-yl)but-2-en-1-one], the pIC50 is 8.14.

Regarding `CN(C)C/C=C/C(=O)N1CCN2C[C@H]1COc1cc3ncnc(Nc4ccc(Oc5ccn6ncnc6c5)cc4)c3nc12` [Compound 31, (E)-1-((10S)-4-((4-([1,2,4]triazolo[1,5-a]pyridin-7-yloxy)phenyl)amino)-7,8,10,11-tetrahydro-9H-6,10-methanopyrimido[4′,5′:5,6]pyrido[3,2-b][1,4,7]oxadiazonin-9-yl)-4-(dimethylamino)but-2-en-1-one], the pIC50 is 7.70.

Consider `CNC/C=C/C(=O)N1CCN2C[C@H]1COc1cc3ncnc(Nc4cc(C)c(Oc5ccn6ncnc6c5)cc4F)c3nc12` [Compound 49, (E)-1-((10S)-4-((4-([1,2,4]triazolo[1,5-a]pyridin-7-yloxy)-2-fluoro-5-methylphenyl)amino)-7,8,10,11-tetrahydro-9H-6,10-methanopyrimido[4′,5′:5,6]pyrido[3,2-b][1,4,7]oxadiazonin-9-yl)-4-(methylamino)but-2-en-1-one], for which the pIC50 was 7.42.

On to `CN(C)C/C=C/C(=O)N1CCN2C[C@H]1COc1cc3ncnc(Nc4ccc(Oc5ccn6ncnc6c5)c(Cl)c4)c3nc12` [Compound 32, (E)-1-((10S)-4-((4-([1,2,4]triazolo[1,5-a]pyridin-7-yloxy)-3-chlorophenyl)amino)-7,8,10,11-tetrahydro-9H-6,10-methanopyrimido[4′,5′:5,6]pyrido[3,2-b][1,4,7]oxadiazonin-9-yl)-4-(dimethylamino)but-2-en-1-one], for which the pIC50 was 8.34.

Take `Cc1cc(Nc2ncnc3cc4c(cc23)N2CCN(C(=O)/C=C/CN(C)C)[C@H](CO4)C2)ccc1Oc1ccn2ncnc2c1` [Compound 9, (E)-1-((10S)-4-((4-([1,2,4]triazolo[1,5-a]pyridin-7-yloxy)-3-methylphenyl)amino)-7,8,10,11-tetrahydro-9H-6,10-methano[1,4,7]oxadiazonino[3,2-g]quinazolin-9-yl)-4-(dimethylamino)but-2-en-1-one]: the pIC50 is 7.07.

`Cc1cc(Nc2ncnc3cc4c(nc23)N2CCN(C(=O)/C=C/CN(C)C)[C@H](CO4)C2)ccc1Oc1ccc2c(c1)ncn2C` [Compound 6, (E)-4-(dimethylamino)-1-((10S)-4-((3-methyl-4-((1-methyl-1H-benzo[d]imidazol-5-yl)oxy)phenyl)amino)-7,8,10,11-tetrahydro-9H-6,10-methanopyrimido[4′,5′: 5,6]pyrido[3,2-b][1,4,7]oxadiazonin-9-yl)but-2-en-1-one]: the pIC50 was 7.80.
